The source made the active and inactive calls.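 The calls were made as follows: active = Fitted curve of melting temperature shift crosses the 1.0 threshold at or below the sample's highest valid tested concentration; inconclusive = Flat fit with activity 30 to 70, or invalid fit; inactive = Opposite direction, flat within 30, or no crossing.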

The target of this experiment is Fibroblast growth factor 22 (Homo sapiens) (UniProt Q9HCT0). The experiment is described as follows: binders of human FGF22 protein, dose response, FGF22 synaptogenesis inhibitor project, biophysical, thermal shift, cherry-pick (AID 687022). The conditions noted are these: recombinant FGF22 thermal shift, SYPRO orange melting.
Fibroblast growth factor 22 (Homo sapiens), sequence (Q9HCT0 whole entry, looked up): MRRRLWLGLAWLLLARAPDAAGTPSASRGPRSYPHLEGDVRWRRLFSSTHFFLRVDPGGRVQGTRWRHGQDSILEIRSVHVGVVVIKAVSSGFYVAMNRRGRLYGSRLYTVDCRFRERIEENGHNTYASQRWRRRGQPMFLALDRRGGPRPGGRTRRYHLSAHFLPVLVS

As for `O=C1C(Cl)=C(NS(=O)(=O)c2ccc([N+](=O)[O-])cc2)C(=O)c2ccccc21`, the AbsAC1 (concentration giving Tm-shift threshold 1.0) is 7.4 µM.

On to `CCn1c2ccccc2c2cc(/C=N/NC(=O)c3ccncc3)ccc21`, for which the AbsAC1 (concentration giving Tm-shift threshold 1.0) is 25 µM.

As for `O=S(=O)(Nc1nnc(C(F)(F)F)s1)c1ccc(Cl)cc1`, the AbsAC1 (concentration giving Tm-shift threshold 1.0) is 3.42 µM.

On to `COc1ccc(-c2cn(CC[C@@H]3CC[C@@H](NC(=O)Nc4ccc(F)cc4)[C@H](CO)O3)nn2)cc1`, for which the AbsAC1 (concentration giving Tm-shift threshold 1.0) is 12.8 µM.

`Cc1ccccc1-n1c(O)c(/C=N/NC(=O)c2ccccc2O)c(=O)[nH]c1=S`: the AbsAC1 (concentration giving Tm-shift threshold 1.0) is 3.51 µM.

Regarding `CCOc1cccc(C(=O)Nc2ccc3[nH]ncc3c2)c1`, the AbsAC1 (concentration giving Tm-shift threshold 1.0) was 3.89 µM.

With `O=C(N/N=C/c1c[nH]c2ccccc12)c1cccc(O)c1`, the AbsAC1 (concentration giving Tm-shift threshold 1.0) is 2.9 µM.

For `Cc1[nH]c2ccccc2c1C(=O)NS(=O)(=O)Nc1ccc(Cl)cc1`, the AbsAC1 (concentration giving Tm-shift threshold 1.0) is 3.06 µM.

For the molecule `O=C(Nc1ccc(F)cc1)N[C@@H]1CC[C@H](CCn2cc(-c3ccc(F)cc3)nn2)O[C@H]1CO`, the AbsAC1 (concentration giving Tm-shift threshold 1.0) is 13 µM.

For `CC1(C(=O)NS(=O)(=O)c2ccc(Cl)cc2)CCN1C(=O)Cc1ccc(Cl)cc1Cl` (stereo not given), the AbsAC1 (concentration giving Tm-shift threshold 1.0) is > 10 µM (inactive).

Regarding `O=C(N/N=C/c1ccsc1)c1c[nH]c2ccccc12`, the AbsAC1 (concentration giving Tm-shift threshold 1.0) was 17.9 µM.

On to `CCC(=O)Nc1nc(C)c(-c2csc(Nc3ccccn3)n2)s1`, for which the AbsAC1 (concentration giving Tm-shift threshold 1.0) is 4.91 µM.

`O=C(Nc1nccs1)c1ccc(S(=O)(=O)NCc2cccs2)cc1`: the AbsAC1 (concentration giving Tm-shift threshold 1.0) is 11.1 µM.

As for `O=C(N/N=C/c1c[nH]c2ccccc12)c1cccs1`, the AbsAC1 (concentration giving Tm-shift threshold 1.0) was 2.71 µM.

In the case of `COc1ccccc1NC(=O)N[C@@H]1CC[C@H](CCn2cc(-c3ccccc3OC)nn2)O[C@@H]1CO`, the AbsAC1 (concentration giving Tm-shift threshold 1.0) is 32 µM.

On to `CC(C)(C)S(=O)(=O)/C(C#N)=N/Nc1ccc(Cl)cc1`, for which the AbsAC1 (concentration giving Tm-shift threshold 1.0) is 25.7 µM.

As for `C/C(=N\NC(=O)c1nnn(-c2nonc2N)c1CSc1ccc(C)cc1)c1cccnc1`, the AbsAC1 (concentration giving Tm-shift threshold 1.0) is 37.4 µM.

For the molecule `O=C(CCc1ccc(O)cc1)c1c(O)cc(O)cc1O`, the AbsAC1 (concentration giving Tm-shift threshold 1.0) is 1.74 µM.

Take `O=[N+]([O-])c1ccc(N/N=C/c2ccc[nH]2)cc1`: the AbsAC1 (concentration giving Tm-shift threshold 1.0) was 8.39 µM.

For the molecule `CN(Cc1c(C(=O)N/N=C/c2ccc(O)cc2)nnn1-c1nonc1N)c1ccccc1`, the AbsAC1 (concentration giving Tm-shift threshold 1.0) was 0.867 µM.

Regarding `CCn1ccnc1CN(C)C(=O)c1ccc2nc(Cc3ccc(OC)cc3)oc2c1`, the AbsAC1 (concentration giving Tm-shift threshold 1.0) is 11.9 µM.

Take `O=C(N/N=C/c1ccc(OCc2ccccc2)cc1)c1ccc(O)cc1`: the AbsAC1 (concentration giving Tm-shift threshold 1.0) was 3.59 µM.

`NC(=NCCc1c[nH]c2ccccc12)NS(=O)(=O)c1ccc(F)cc1`: the AbsAC1 (concentration giving Tm-shift threshold 1.0) was 6.63 µM.

In the case of `NC(=O)c1ccsc1NC(=O)COC(=O)CCCOc1ccccc1`, the AbsAC1 (concentration giving Tm-shift threshold 1.0) is 5.37 µM.

Take `O=C(O)Cn1cc(/C=N/NC(=O)c2cc3cc(Br)ccc3o2)c2ccccc21`: the AbsAC1 (concentration giving Tm-shift threshold 1.0) was 6.74 µM.

In the case of `Nc1ccc(C(=O)N/N=C/c2c[nH]c3ccccc23)cc1`, the AbsAC1 (concentration giving Tm-shift threshold 1.0) was 3.41 µM.

`O=C(N/N=C/c1ccc(Cl)cc1)c1ccc2nc[nH]c2c1`: the AbsAC1 (concentration giving Tm-shift threshold 1.0) is 2.95 µM.

In the case of `COc1ccc(/C(O)=C/C(=O)C(=O)NNC(=O)c2ccccc2)cc1`, the AbsAC1 (concentration giving Tm-shift threshold 1.0) was 31.6 µM.

Turning to `Cc1cc(C)cc(NC(=O)CN2C(=O)NC(Cc3c[nH]c4ccccc34)C2=O)c1` (stereo not given), the AbsAC1 (concentration giving Tm-shift threshold 1.0) is 13 µM.

For `C[C@H](CO)N1C[C@H](C)[C@@H](CN(C)C(=O)C2CC2)OCc2ccccc2-c2ccccc2C1=O`, the AbsAC1 (concentration giving Tm-shift threshold 1.0) is 35.4 µM.

As to `Cc1cccc(NC(=O)Nc2ccc(S(N)(=O)=O)cc2)c1`, the AbsAC1 (concentration giving Tm-shift threshold 1.0) was 4.36 µM.

On to `O=C(NCCc1c[nH]c2ccccc12)c1ccc(Cl)cc1`, for which the AbsAC1 (concentration giving Tm-shift threshold 1.0) is 2.49 µM.

Regarding `NS(=O)(=O)c1ccc(NC(=O)Nc2cccc(Cl)c2)cc1`, the AbsAC1 (concentration giving Tm-shift threshold 1.0) was 16.8 µM.

For the molecule `CCOC(=O)C(c1c(O)c2ccccc2oc1=O)c1c(O)c2ccccc2oc1=O`, the AbsAC1 (concentration giving Tm-shift threshold 1.0) was > 5 µM (inactive).

`O=C(Nc1nc(-c2ccccn2)cs1)c1cccc(S(=O)(=O)N2CCOCC2)c1`: the AbsAC1 (concentration giving Tm-shift threshold 1.0) is 9.23 µM.

`Cc1nn(-c2ccccc2)c(C)c1/C=N/NC(=O)c1cc(-c2cccs2)[nH]n1`: the AbsAC1 (concentration giving Tm-shift threshold 1.0) is 8.19 µM.

Consider `CN1C(=O)c2cc(NC(=O)c3cccc(F)c3)ccc2OC[C@@H]2O[C@H](CC(=O)NCc3ccccc3)CC[C@@H]21`, for which the AbsAC1 (concentration giving Tm-shift threshold 1.0) is 21 µM.

With `O=C(CC1SC(=O)NC1=O)Nc1ccc(Cl)cc1` (stereo not given), the AbsAC1 (concentration giving Tm-shift threshold 1.0) is 3.11 µM.

For the molecule `COc1ccc(OC)c(Nc2ccc(Nc3cc(OC)ccc3OC)nn2)c1`, the AbsAC1 (concentration giving Tm-shift threshold 1.0) was 8.4 µM.

With `CCOc1ccc(N2C(=O)C(CC(=O)Nc3ccccc3)N(Cc3ccccn3)C2=S)cc1` (stereo not given), the AbsAC1 (concentration giving Tm-shift threshold 1.0) was 4.24 µM.

On to `CN1C(=O)c2cc(NC(=O)c3cccc(F)c3)ccc2OC[C@H]2O[C@@H](CC(=O)NCc3ccccc3)CC[C@H]21`, for which the AbsAC1 (concentration giving Tm-shift threshold 1.0) is 3.24 µM.

Turning to `CC(C)(C)[S@@](=O)N1Cc2cc(C(=O)NCc3ccccc3F)nc(-c3cccc(-c4ccncc4)c3)c2[C@H]1CCO`, the AbsAC1 (concentration giving Tm-shift threshold 1.0) was > 38 µM (inactive).

Consider `COc1ccccc1NC(=O)Nc1cccc(NC(C)=O)c1`, for which the AbsAC1 (concentration giving Tm-shift threshold 1.0) is 7.52 µM.

Turning to `Nc1ccc(C(=O)Nc2ccc(OC(F)(F)C(F)F)c(NC(=O)c3ccc(N)cc3)c2)cc1`, the AbsAC1 (concentration giving Tm-shift threshold 1.0) was 6.85 µM.

For the molecule `Nc1nonc1N/N=C\c1ccccc1`, the AbsAC1 (concentration giving Tm-shift threshold 1.0) is 4.88 µM.

Consider `CS(=O)(=O)c1ccc2nc(NC(=O)c3ccc(Cl)nc3)sc2c1`, for which the AbsAC1 (concentration giving Tm-shift threshold 1.0) is 22.9 µM.

On to `COc1ccc(C#Cc2ccc3c(c2)O[C@H](CN(C)S(=O)(=O)c2ccccc2F)[C@@H](C)CN([C@@H](C)CO)S3(=O)=O)cc1`, for which the AbsAC1 (concentration giving Tm-shift threshold 1.0) is 14.7 µM.

With `Cc1ccc2nc(-c3ccc(NC(=O)COCC(=O)O)cc3)sc2c1`, the AbsAC1 (concentration giving Tm-shift threshold 1.0) is 3.64 µM.

Turning to `CCOc1ccc(NC(=O)CC2C(=O)N(c3ccc(OC)cc3)C(=S)N2Cc2ccccn2)cc1` (stereo not given), the AbsAC1 (concentration giving Tm-shift threshold 1.0) was 3.11 µM.

`O=C(Nc1ccc(F)c(Cl)c1)C1CCCN(C2=NS(=O)(=O)c3ccccc32)C1` (stereo not given): the AbsAC1 (concentration giving Tm-shift threshold 1.0) is > 38 µM (inactive).

`CC1(C)CCC(=O)N2CC[C@H]3C[C@H](OC(=O)Nc4ccccc4)C[C@@H]1[C@H]32`: the AbsAC1 (concentration giving Tm-shift threshold 1.0) was 12 µM.

Turning to `C[C@@H]1CN([C@@H](C)CO)S(=O)(=O)c2ccc(-c3ccc(F)cc3)cc2O[C@@H]1CN(C)C(=O)Nc1ccccc1F`, the AbsAC1 (concentration giving Tm-shift threshold 1.0) is > 38 µM (inactive).

For the molecule `COc1cccc(NC(=O)CN(C)C(=O)c2ccc(NC3CC3)c([N+](=O)[O-])c2)c1`, the AbsAC1 (concentration giving Tm-shift threshold 1.0) is 5.08 µM.

`CCc1nnc(NS(=O)(=O)c2ccc(NC(=O)c3ccc(Br)cc3)cc2)s1`: the AbsAC1 (concentration giving Tm-shift threshold 1.0) was 5.81 µM.

As for `Cc1cc(C(=O)N/N=C/c2c[nH]c3ccccc23)cs1`, the AbsAC1 (concentration giving Tm-shift threshold 1.0) is 2.23 µM.

(Values after PubChem BioAssay AID687022 (Broad Institute, 2013).)
